Tests used:
[1] = biological target: T1, MMP-2 (72 kDa gelatinase, gelatinase A) (Homo sapiens, UniProt P08253); assay: In vitro metalloprotease inhibition, MMP-2; type: biochemical
T1 sequence (P08253 110-660): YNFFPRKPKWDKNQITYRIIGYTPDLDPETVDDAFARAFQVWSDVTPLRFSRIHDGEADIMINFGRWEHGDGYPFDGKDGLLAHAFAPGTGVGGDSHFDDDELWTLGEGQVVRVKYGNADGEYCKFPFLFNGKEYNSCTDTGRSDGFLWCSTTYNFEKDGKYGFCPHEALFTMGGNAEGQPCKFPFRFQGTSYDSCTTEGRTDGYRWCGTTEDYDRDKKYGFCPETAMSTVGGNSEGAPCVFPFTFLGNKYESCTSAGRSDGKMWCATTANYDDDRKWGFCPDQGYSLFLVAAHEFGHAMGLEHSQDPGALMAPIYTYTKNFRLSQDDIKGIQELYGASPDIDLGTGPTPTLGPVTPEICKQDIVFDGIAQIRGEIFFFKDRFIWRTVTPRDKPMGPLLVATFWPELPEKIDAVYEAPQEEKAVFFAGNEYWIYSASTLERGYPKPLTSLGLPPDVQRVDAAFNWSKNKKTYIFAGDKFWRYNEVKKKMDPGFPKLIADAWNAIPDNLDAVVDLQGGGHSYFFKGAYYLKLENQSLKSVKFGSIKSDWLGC

[2] = biological target: MMP-3 (Stromelysin-1) (Homo sapiens, UniProt P08254); assay: In vitro metalloprotease inhibition, MMP-3; type: biochemical
Sequence of MMP-3 (Stromelysin-1) (P08254 100-477, species assumed): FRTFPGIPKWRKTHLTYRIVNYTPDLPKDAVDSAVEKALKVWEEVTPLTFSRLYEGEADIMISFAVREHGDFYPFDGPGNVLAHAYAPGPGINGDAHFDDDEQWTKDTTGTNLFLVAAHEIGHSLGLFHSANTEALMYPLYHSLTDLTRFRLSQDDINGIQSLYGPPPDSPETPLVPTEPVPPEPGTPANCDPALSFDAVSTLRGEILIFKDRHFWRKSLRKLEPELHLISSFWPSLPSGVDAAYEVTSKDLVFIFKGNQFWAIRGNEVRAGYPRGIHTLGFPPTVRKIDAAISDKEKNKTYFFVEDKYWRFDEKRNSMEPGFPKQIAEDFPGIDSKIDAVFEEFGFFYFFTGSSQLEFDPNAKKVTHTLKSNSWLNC
Source text: (§1) Blank cells indicate lack of data only.

[3] = biological target: T2, ADAM-10 (UniProt O14672); assay: ADAM-10 enzyme assay, cleavage of a fluorogenic 10-residue peptide; type: biochemical, mouse or human (mADAM-10 or hADAM-10); conditions: in vitro;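 also: mouse or human ADAM-10 at 5 nM active enzyme, pH 8.0 HEPES buffer with CaCl2 and NP-40, compounds titrated 100 µM down to 0.5 nM, fluorescence read after 16 h at room temperature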
T2 sequence (O14672 1-748): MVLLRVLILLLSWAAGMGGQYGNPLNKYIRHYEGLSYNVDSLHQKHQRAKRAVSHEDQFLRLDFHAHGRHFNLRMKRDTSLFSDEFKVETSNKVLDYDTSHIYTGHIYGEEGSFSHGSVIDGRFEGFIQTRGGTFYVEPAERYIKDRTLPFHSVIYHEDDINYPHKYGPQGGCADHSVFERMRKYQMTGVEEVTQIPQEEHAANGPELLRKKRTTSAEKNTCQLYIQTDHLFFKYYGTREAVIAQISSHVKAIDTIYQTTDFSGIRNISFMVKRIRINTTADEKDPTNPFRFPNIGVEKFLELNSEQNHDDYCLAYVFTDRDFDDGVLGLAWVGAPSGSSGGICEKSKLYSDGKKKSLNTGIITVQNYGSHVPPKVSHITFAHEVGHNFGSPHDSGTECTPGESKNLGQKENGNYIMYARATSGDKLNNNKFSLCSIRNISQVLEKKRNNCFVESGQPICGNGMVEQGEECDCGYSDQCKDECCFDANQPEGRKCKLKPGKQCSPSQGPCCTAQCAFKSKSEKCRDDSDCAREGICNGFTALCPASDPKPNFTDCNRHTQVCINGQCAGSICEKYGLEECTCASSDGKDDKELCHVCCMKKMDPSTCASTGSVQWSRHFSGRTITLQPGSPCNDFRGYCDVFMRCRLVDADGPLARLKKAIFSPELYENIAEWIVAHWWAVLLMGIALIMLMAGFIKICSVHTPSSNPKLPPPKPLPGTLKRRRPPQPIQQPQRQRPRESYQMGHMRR
Method: mADAM-10 or hADAM-10 activity was measured as the ability to cleave a 10-residue peptide (DABCYL-Leu-Leu-Ala-Gln-Lys-*-LeuArg-Ser-Ser-Arg-EDANS). […] Enzyme was diluted to a final active concentration of 5 nM in Buffer A (50 mM HEPES 8.0, 100 mM NaCl, 1 mM CaCl2 and 0.01% NP-40). Serial dilutions for compounds were performed ranging from 100 μM to 0.5 nM using a Beckman Biomek 2000 in polypropylene plates (Greiner). […] This reaction was incubated for 16 hr at RT and fluorescence was read using identical conditions.

[4] = biological target: MMP-13 (collagenase-3) (Homo sapiens, UniProt P45452); assay: In vitro metalloprotease inhibition, MMP-13; type: biochemical
[5] = biological target: T3, MMP-1 (Fibroblast collagenase) (Homo sapiens, UniProt P03956); assay: In vitro metalloprotease inhibition, MMP-1; type: biochemical
T3 sequence (P03956 100-469): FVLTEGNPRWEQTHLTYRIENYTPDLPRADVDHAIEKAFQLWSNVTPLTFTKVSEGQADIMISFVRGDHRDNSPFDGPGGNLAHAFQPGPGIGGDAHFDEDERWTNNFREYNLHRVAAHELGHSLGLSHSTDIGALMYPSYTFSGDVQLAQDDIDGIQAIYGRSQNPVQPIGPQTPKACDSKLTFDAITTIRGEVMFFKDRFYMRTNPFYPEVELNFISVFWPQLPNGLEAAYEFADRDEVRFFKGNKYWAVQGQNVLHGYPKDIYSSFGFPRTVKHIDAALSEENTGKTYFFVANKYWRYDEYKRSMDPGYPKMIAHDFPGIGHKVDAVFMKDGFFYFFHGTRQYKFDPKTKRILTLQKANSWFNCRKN
Source text: as §1

Compound | IC50 [1] [nM] | IC50 [2] [nM] | IC50 [3] [nM] | IC50 [4] [nM] | IC50 [5] [nM]
O=C(NO)[C@H]1CNCCN1S(=O)(=O)c1cc(F)c(Oc2ccc(F)cc2)c(F)c1 [Entry 11] | 50 to 1000 | 1000 to 20000 | 50 to 1000 | > 20000 | > 20000
O=C(NO)[C@H]1CN(S(=O)(=O)CCN2CCOCC2)CCN1S(=O)(=O)c1cc(F)c(Oc2ccc(Cl)cc2)c(F)c1 [Entry 57] | 50 to 1000 | 1000 to 20000 | 50 to 1000 | 50 to 1000 | > 20000
C=CCN1CCN(S(=O)(=O)c2cc(F)c(Oc3ccc(Cl)cc3)c(F)c2)[C@@H](C(=O)NO)C1 [Entry 62] | < 50 | 1000 to 20000 | 50 to 1000 | < 50 | > 20000
COCCOC(=O)N1CCN(S(=O)(=O)c2ccc(Oc3ccc(F)cc3)cc2)[C@@H](C(=O)NO)C1 [Entry 1] | < 50 | < 50 | < 50 | < 50 | < 50
COCCOC(=O)N1CCN(S(=O)(=O)c2ccc(-c3cccc(F)c3)nc2)[C@@H](C(=O)NO)C1 [Entry 66] | < 50 | < 50 | < 50 | < 50 | 50 to 1000
O=C(NO)[C@H]1CN(C(=O)CN2CCOCC2)CCN1S(=O)(=O)c1cc(F)c(Oc2ccc(Cl)cc2)c(F)c1 [Entry 25] | < 50 | 50 to 1000 | < 50 | < 50 | > 20000
CS(=O)(=O)N1CCN(S(=O)(=O)c2cc(F)c(Oc3ccc(Cl)cc3)c(F)c2)[C@@H](C(=O)NO)C1 [Entry 28] | < 50 | 50 to 1000 | < 50 | < 50 | 50 to 1000
O=C(NO)[C@H]1CN(CC(=O)N2CCCC2)CCN1S(=O)(=O)c1cc(F)c(Oc2ccc(Cl)cc2)c(F)c1 [Entry 21] | < 50 | 1000 to 20000 | < 50 | 50 to 1000 | > 20000
O=C(NO)[C@H]1CN(C(=O)C(=O)N2CCCCC2)CCN1S(=O)(=O)c1cc(F)c(Oc2ccc(Cl)cc2)c(F)c1 [Entry 35] | < 50 | 50 to 1000 | < 50 | < 50 | 1000 to 20000
N#Cc1ccc(Oc2ccc(S(=O)(=O)N3CCN(C(=O)N4CCOCC4)C[C@@H]3C(=O)NO)cc2F)cc1 [Entry 7] | < 50 | < 50 | < 50 | < 50 | 50 to 1000
O=C(NO)[C@H]1CN(C(=O)N2CCOCC2)CCN1S(=O)(=O)c1ccc(Oc2ccc(Cl)cc2)c(F)c1 [Entry 6] | < 50 | < 50 | < 50 | < 50 | 50 to 1000
CN1CCN(CC(=O)N2CCN(S(=O)(=O)c3cc(F)c(Oc4ccc(Cl)cc4)c(F)c3)[C@@H](C(=O)NO)C2)CC1 [Entry 24] | < 50 | 1000 to 20000 | < 50 | < 50 | > 20000
CN(C)c1ccc2c(S(=O)(=O)N3CCN(S(=O)(=O)c4cc(F)c(Oc5ccc(Cl)cc5)c(F)c4)[C@@H](C(=O)NO)C3)cccc2c1 [Entry 49] | < 50 | 50 to 1000 | 1000 to 20000 | < 50 | > 20000
O=C(NO)[C@H]1CN(C(=O)N2CCOCC2)CCN1S(=O)(=O)c1cc(F)c(Oc2ccc(F)cc2)c(F)c1 [Entry 12] | < 50 | 50 to 1000 | < 50 | < 50 | 1000 to 20000
O=C(O)CN1CCN(S(=O)(=O)c2cc(F)c(Oc3ccc(Cl)cc3)c(F)c2)[C@@H](C(=O)NO)C1 [Entry 63] | 50 to 1000 | 1000 to 20000 | 50 to 1000 | 50 to 1000 | > 20000
O=C(NO)[C@H]1CN(S(=O)(=O)c2cccc3cnccc23)CCN1S(=O)(=O)c1cc(F)c(Oc2ccc(Cl)cc2)c(F)c1 [Entry 48] | < 50 | 50 to 1000 | < 50 | < 50 | > 20000

Next, values leading:

IC50 [1] [nM] | IC50 [2] [nM] | IC50 [3] [nM] | IC50 [4] [nM] | IC50 [5] [nM] | Compound
< 50 | 50 to 1000 | < 50 | < 50 | > 20000 | O=C(NO)[C@H]1CN(C(=O)OCCN2CCCC2)CCN1S(=O)(=O)c1cc(F)c(Oc2ccc(Cl)cc2)c(F)c1 [Entry 18]
< 50 | 1000 to 20000 | < 50 | < 50 | 50 to 1000 | COCCOC(=O)N1CCN(S(=O)(=O)c2ccc(Oc3ccc(F)cc3)c(F)c2)[C@@H](C(=O)NO)C1 [Entry 3]
< 50 | < 50 | < 50 | < 50 | 50 to 1000 | O=C(NO)[C@H]1CN(C(=O)N2CCOCC2)CCN1S(=O)(=O)c1ccc(Oc2ccc(F)cc2)c(F)c1 [Entry 8]
< 50 | 1000 to 20000 | < 50 | < 50 | > 20000 | O=C(NO)[C@H]1CN(C(=O)CN2CCCCC2)CCN1S(=O)(=O)c1cc(F)c(Oc2ccc(Cl)cc2)c(F)c1 [Entry 26]
< 50 | 50 to 1000 | < 50 | < 50 | 1000 to 20000 | CCOC(=O)N1CCN(S(=O)(=O)c2cc(F)c(Oc3ccc(F)cc3)c(F)c2)[C@@H](C(=O)NO)C1 [Entry 13]
< 50 | < 50 | < 50 | < 50 | 1000 to 20000 | O=C(NO)[C@H]1CN(S(=O)(=O)c2cc(F)c(O)c(F)c2)CCN1S(=O)(=O)c1cc(F)c(Oc2ccc(Cl)cc2)c(F)c1 [Entry 41]
< 50 | 50 to 1000 | < 50 | < 50 | 1000 to 20000 | CN1CCN(CCS(=O)(=O)N2CCN(S(=O)(=O)c3cc(F)c(Oc4ccc(Cl)cc4)c(F)c3)[C@@H](C(=O)NO)C2)CC1 [Entry 55]
< 50 | 1000 to 20000 | < 50 | 50 to 1000 | > 20000 | CCCC(CCC)C(=O)N1CCN(S(=O)(=O)c2cc(F)c(Oc3ccc(Cl)cc3)c(F)c2)[C@@H](C(=O)NO)C1 [Entry 44]
< 50 | 50 to 1000 | < 50 | < 50 | 50 to 1000 | O=C(NO)[C@H]1CN(C(=O)N2CCOCC2)CCN1S(=O)(=O)c1ccc(-c2cccc(F)c2)nc1 [Entry 58]
< 50 | 50 to 1000 | < 50 | < 50 | > 20000 | O=C(NO)[C@H]1CN(C(=O)Cc2cccnc2)CCN1S(=O)(=O)c1cc(F)c(Oc2ccc(Cl)cc2)c(F)c1 [Entry 47]
< 50 | 50 to 1000 | < 50 | < 50 | 1000 to 20000 | O=C(NO)[C@H]1CN(C(=O)NCCN2CCCC2)CCN1S(=O)(=O)c1cc(F)c(Oc2ccc(Cl)cc2)c(F)c1 [Entry 17]
< 50 | > 20000 | 50 to 1000 | < 50 | > 20000 | CN1CCN(S(=O)(=O)c2cc(F)c(Oc3ccc(F)cc3)c(F)c2)[C@@H](C(=O)NO)C1 [Entry 14]
< 50 | 50 to 1000 | < 50 | < 50 | 1000 to 20000 | CCOC(=O)N1CCN(CCS(=O)(=O)N2CCN(S(=O)(=O)c3cc(F)c(Oc4ccc(Cl)cc4)c(F)c3)[C@@H](C(=O)NO)C2)CC1 [Entry 56]

From patent publication US7629341B2, “Human ADAM-10 inhibitors” (Symphony Evolution, Inc., priority 2003, dated 2009)
